In ChEMBL document CHEMBL4028802, “DILIrank: the largest reference drug list ranked by the risk for developing drug-induced liver injury in humans” (Drug Discov Today, 2016):
Starred links: 1 amine or outer side, 2 acyl side, 3 side chain; linkers in the order of their positions; H or OH if unused. Positions of bridges follow the written chain, without caps; N, C: chain ends. Non-standard residues stand in square brackets, D forms with d. Residues, ends and D or L forms follow the SMILES beside them. *: point of attachment. hTyr(3S-OH,4S-OH,3'-OSO3H) = N[C@H](C(=O)O)[C@H](O)[C@@H](O)c1ccc(O)c(OS(=O)(=O)O)c1; Orn(4R-OH,5R-OH) = O=C([C@H](C[C@@H](O)[C@@H](O)N[*:3])N[*:1])[*:2]; Pro(3S-OH,4S-Me) = C[C@H]1CN[C@H](C(=O)O)[C@H]1O; X1 = CCCCCOc1ccc(-c2cc(-c3ccc(C(=O)*)cc3)no2)cc1; Gln(3R-OH) = NC(=O)C[C@@H](O)[C@H](N)C(=O)O; Hyp = O=C(O)[C@@H]1C[C@@H](O)CN1

Key:
[1] = organism: Homo sapiens; assay: Liver toxicity in human assessed as induction of drug-induced liver injury by measuring severity class index
[2] = organism: Homo sapiens; assay: Liver toxicity in human assessed as induction of drug-induced liver injury by measuring verified drug-induced liver injury concern status
Wherever DILI severity class is given: key of the grades not given here.

Row | SMILES | DILI_severity_class [1] | DILI_Concern [2]
1 | CNCCCC12CCC(c3ccccc31)c1ccccc12 [MAPROTILINE] | 5 | Ambiguous-Dili-Concern
2 | Cc1nnc(C(C)C)n1[C@@H]1C[C@H]2CC[C@@H](C1)N2CC[C@H](NC(=O)C1CCC(F)(F)CC1)c1ccccc1 [MARAVIROC] | 3 | Most-Dili-Concern
3 | CC(NN)c1ccccc1 (stereo unspecified) [MEBANAZINE] | 8 | Most-Dili-Concern
4 | COC(=O)Nc1nc2ccc(C(=O)c3ccccc3)cc2[nH]1 [MEBENDAZOLE] | 3 | Less-Dili-Concern
5 | CNC1(C)C2CCC(C2)C1(C)C (stereo unspecified) [MECAMYLAMINE] | 0 | No-Dili-Concern
6 | Cc1cccc(CN2CCN(C(c3ccccc3)c3ccc(Cl)cc3)CC2)c1 (stereo unspecified) [MECLIZINE] | 0 | No-Dili-Concern
7 | Cc1ccc(Cl)c(Nc2ccccc2C(=O)O)c1Cl [MECLOFENAMIC ACID] | 3 | Ambiguous-Dili-Concern
8 | Cc1cccc(Nc2ccccc2C(=O)O)c1C [MEFENAMIC ACID] | 8 | Most-Dili-Concern
9 | Cc1cnc(NC(=O)C2=C(O)c3ccccc3S(=O)(=O)N2C)s1 [MELOXICAM] | 3 | Less-Dili-Concern
10 | CC12CC3CC(C)(C1)CC(N)(C3)C2 [MEMANTINE] | 7 | Less-Dili-Concern
11 | CN1CCCC(CN2c3ccccc3Sc3ccccc32)C1 (stereo unspecified) [MEPAZINE] | 8 | Most-Dili-Concern
12 | C[N+]1(C)CCCC(OC(=O)C(O)(c2ccccc2)c2ccccc2)C1 (stereo unspecified) [MEPENZOLATE] | 0 | No-Dili-Concern
13 | CCOC(=O)C1(c2ccccc2)CCN(C)CC1 [MEPERIDINE] | 0 | No-Dili-Concern
14 | CCC1(c2ccccc2)NC(=O)N(C)C1=O (stereo unspecified) [MEPHENYTOIN] | 5 | Ambiguous-Dili-Concern
15 | Cc1cccc(C)c1NC(=O)C1CCCCN1C (stereo unspecified) [MEPIVACAINE] | 0 | No-Dili-Concern
16 | CCCC(C)(COC(N)=O)COC(N)=O [MEPROBAMATE] | 0 | No-Dili-Concern
17 | Sc1ncnc2nc[nH]c12 [MERCAPTOPURINE ANHYDROUS] | 8 | Most-Dili-Concern
18 | C[C@@H](O)[C@H]1C(=O)N2C(C(=O)O)=C(S[C@@H]3CN[C@H](C(=O)N(C)C)C3)[C@H](C)[C@H]12 [MEROPENEM] | 3 | Less-Dili-Concern
19 | Nc1ccc(O)c(C(=O)O)c1 [MESALAMINE] | 7 | Less-Dili-Concern
20 | O=S(=O)([O-])CCS.[Na+] [MESNA] | 3 | Ambiguous-Dili-Concern
21 | CN1CCCCC1CCN1c2ccccc2Sc2ccc([S+](C)[O-])cc21 (stereo unspecified) [MESORIDAZINE] | 5 | Ambiguous-Dili-Concern

Row | SMILES | DILI_severity_class [1] | DILI_Concern [2]
22 | CC(C)NCC(O)c1cc(O)cc(O)c1 (stereo unspecified) [METAPROTERENOL] | 0 | No-Dili-Concern
23 | Cc1cc(C)cc(OCC2CNC(=O)O2)c1 (stereo unspecified) [METAXALONE] | 5 | Less-Dili-Concern
24 | CN(C)C(=N)N=C(N)N [METFORMIN] | 0 | Less-Dili-Concern
25 | CCC(=O)C(CC(C)N(C)C)(c1ccccc1)c1ccccc1 (stereo unspecified) [METHADONE] | 3 | Ambiguous-Dili-Concern
26 | CN[C@@H](C)Cc1ccccc1 [METHAMPHETAMINE] | 0 | No-Dili-Concern
27 | CC(=O)/N=c1/sc(S(N)(=O)=O)nn1C [METHAZOLAMIDE] | 7 | Less-Dili-Concern
28 | C1N2CN3CN1CN(C2)C3.O=C(O)CNC(=O)c1ccccc1 [METHENAMINE HIPPURATE] | 3 | Ambiguous-Dili-Concern
29 | CSCC[C@H](N)C(=O)O [METHIONINE] | 0 | No-Dili-Concern
30 | COc1ccccc1OCC(O)COC(N)=O (stereo unspecified) [METHOCARBAMOL] | 5 | Ambiguous-Dili-Concern
31 | C=CCC1(C(C)C#CCC)C(=O)N=C(O)N(C)C1=O (stereo unspecified) [METHOHEXITAL] | 3 | Ambiguous-Dili-Concern
32 | CN(Cc1cnc2nc(N)nc(N)c2n1)c1ccc(C(=O)N[C@@H](CCC(=O)O)C(=O)O)cc1 [METHOTREXATE] | 3 | Most-Dili-Concern
33 | COc1c2occc2cc2ccc(=O)oc12 [METHOXSALEN] | 3 | Less-Dili-Concern
34 | C[N+]1(C)[C@@H]2C[C@@H](OC(=O)[C@H](CO)c3ccccc3)C[C@H]1[C@@H]1O[C@@H]12.[Br-] [METHSCOPOLAMINE BROMIDE] | 0 | No-Dili-Concern
35 | CN1C(=O)CC(C)(c2ccccc2)C1=O (stereo unspecified) [METHSUXIMIDE] | 0 | No-Dili-Concern
36 | CN1C(CCl)Nc2cc(Cl)c(S(N)(=O)=O)cc2S1(=O)=O (stereo unspecified) [METHYCLOTHIAZIDE] | 2 | Ambiguous-Dili-Concern
37 | C[C@](N)(Cc1ccc(O)c(O)c1)C(=O)O [METHYLDOPA] | 8 | Most-Dili-Concern
38 | CC[C@@H](CO)NC(=O)[C@@H]1C=C2c3cccc4[nH]cc(c34)C[C@H]2N(C)C1 [METHYLERGONOVINE] | 0 | No-Dili-Concern
39 | C[N+]1(CC2CC2)CC[C@]23c4c5ccc(O)c4O[C@H]2C(=O)CC[C@@]3(O)[C@H]1C5.[Br-] (stereo partly specified) [METHYLNALTREXONE BROMIDE] | 0 | No-Dili-Concern
40 | COC(=O)C(c1ccccc1)C1CCCCN1 (stereo unspecified) [METHYLPHENIDATE] | 3 | Less-Dili-Concern
41 | C[C@H]1C[C@@H]2[C@H]([C@@H](O)C[C@@]3(C)[C@H]2CC[C@]3(O)C(=O)CO)[C@@]2(C)C=CC(=O)C=C12 [METHYLPREDNISOLONE] | 3 | Less-Dili-Concern
42 | C[C@]12CCC(=O)C=C1CC[C@@H]1[C@@H]2CC[C@@]2(C)[C@H]1CC[C@]2(C)O [METHYLTESTOSTERONE] | 2 | Less-Dili-Concern

Row | SMILES | DILI_severity_class [1] | DILI_Concern [2]
43 | CC[C@@H](CO)NC(=O)[C@@H]1C=C2c3cccc4c3c(cn4C)C[C@H]2N(C)C1 [METHYSERGIDE] | 0 | No-Dili-Concern
44 | CCN(CC)CCNC(=O)c1cc(Cl)c(N)cc1OC [METOCLOPRAMIDE] | 5 | Less-Dili-Concern
45 | Cc1ccccc1N1C(=O)c2cc(S(N)(=O)=O)c(Cl)cc2NC1C (stereo unspecified) [METOLAZONE] | 3 | Ambiguous-Dili-Concern
46 | COCCc1ccc(OCC(O)CNC(C)C)cc1.COCCc1ccc(OCC(O)CNC(C)C)cc1.O=C(O)CCC(=O)O (stereo unspecified) [METOPROLOL SUCCINATE] | 3 | Ambiguous-Dili-Concern
47 | COCCc1ccc(OCC(O)CNC(C)C)cc1 (stereo unspecified) [METOPROLOL] | 5 | Less-Dili-Concern
48 | Cc1ncc([N+](=O)[O-])n1CCO [METRONIDAZOLE] | 3 | Less-Dili-Concern
49 | CC(C)(C(=O)c1cccnc1)c1cccnc1 [METYRAPONE] | 0 | No-Dili-Concern
50 | C[C@](N)(Cc1ccc(O)cc1)C(=O)O [METYROSINE] | 0 | No-Dili-Concern
51 | Cc1cccc(C)c1OCC(C)N (stereo unspecified) [MEXILETINE] | 3 | Most-Dili-Concern
52 | CCCCCOc1ccc(-c2cc(-c3ccc(C(=O)N[C@H]4C[C@@H](O)[C@@H](O)NC(=O)[C@@H]5[C@@H](O)[C@@H](C)CN5C(=O)[C@H]([C@H](O)CC(N)=O)NC(=O)[C@H]([C@H](O)[C@@H](O)c5ccc(O)c(OS(=O)(=O)O)c5)NC(=O)[C@@H]5C[C@@H](O)CN5C(=O)[C@H]([C@@H](C)O)NC4=O)cc3)no2)cc1 [MICAFUNGIN] (X1-[Orn(4R-OH,5R-OH)]T[Hyp][hTyr(3S-OH,4S-OH,3'-OSO3H)][Gln(3R-OH)][Pro(3S-OH,4S-Me)]; lactam 1-C) | 7 | Most-Dili-Concern
53 | Cc1ncc2n1-c1ccc(Cl)cc1C(c1ccccc1F)=NC2 [MIDAZOLAM] | 0 | No-Dili-Concern
54 | COc1ccc(OC)c(C(O)CNC(=O)CN)c1 (stereo unspecified) [MIDODRINE] | 0 | No-Dili-Concern
55 | CC#C[C@]1(O)CC[C@H]2[C@@H]3CCC4=CC(=O)CCC4=C3[C@@H](c3ccc(N(C)C)cc3)C[C@@]21C [MIFEPRISTONE] | 0 | No-Dili-Concern
56 | OCCN1C[C@H](O)[C@@H](O)[C@H](O)[C@H]1CO [MIGLITOL] | 0 | No-Dili-Concern
57 | Cc1[nH]c(=O)c(C#N)cc1-c1ccncc1 [MILRINONE] | 3 | Ambiguous-Dili-Concern
58 | CN(C)c1ccc(O)c2c1C[C@H]1C[C@H]3[C@H](N(C)C)C(O)=C(C(N)=O)C(=O)[C@@]3(O)C(O)=C1C2=O [MINOCYCLINE] | 8 | Most-Dili-Concern
59 | Nc1cc(N2CCCCC2)nc(N)[n+]1[O-] [MINOXIDIL] | 0 | No-Dili-Concern
60 | CN1CCN2c3ncccc3Cc3ccccc3C2C1 (stereo unspecified) [MIRTAZAPINE] | 3 | Less-Dili-Concern
61 | Clc1ccc(C(c2ccccc2Cl)C(Cl)Cl)cc1 (stereo unspecified) [MITOTANE] | 0 | No-Dili-Concern
62 | O=C1c2c(O)ccc(O)c2C(=O)c2c(NCCNCCO)ccc(NCCNCCO)c21 [MITOXANTRONE] | 3 | Less-Dili-Concern
63 | NC(=O)C[S+]([O-])C(c1ccccc1)c1ccccc1 (stereo unspecified) [MODAFINIL] | 3 | Less-Dili-Concern
